How the values were obtained:
Format in all cases: in vivo
[1] = test system: redroot pigweed (Amaranthus retroflexus, AMARE); assay: Pre-emerge test, greenhouse herbicide activity screening; details: rated 14 days after application, 0 = no damage, 100 = complete death
Outline: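 Visual ratings on a 0-100 scale (0 no damage, 100 all plants dead) were taken at 14 days after treatment. Rates of 15-1000 g ai/ha in acetone, 187 l/ha, were sprayed onto soil one day after planting (pre-emerge) or onto 2-3 leaf plants with 0.25% v/v surfactant (post-emerge).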

[2] = test system: field corn (Zea mays L., var. Dekalb 535, CORN); assay: Pre-emerge test, crop safety; details: rated 14 days after application, 0 = no damage, 100 = complete death
Outline: (§1)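 Rating: 0–100 visual injury, 14 DAA. Application: acetone, 187 l/ha, 15–1000 g ai/ha, flat-fan track sprayer with nozzle 40–45 cm above soil or canopy. Post-emerge runs used 0.25% v/v surfactant on 2–3 leaf plants.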

[3] = test system: upland rice (Oryza sp., var. Tebonnet, RICE); assay: Pre-emerge test, crop safety; details: rated 14 days after application, 0 = no damage, 100 = complete death
Outline: as §1

[4] = test system: lambsquarters (Chenopodium album, CHEAL); assay: Pre-emerge test, greenhouse herbicide activity screening; details: rated 14 days after application, 0 = no damage, 100 = complete death
Outline: (§2)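 Sandy loam pots; pre-emerge: sown 1 d pre-spray, surface-watered after, then bottom-watered. Post-emerge: sown 8–21 d before, 2–3 leaf stage, + 0.25% v/v NIS, bottom-watered. Acetone, 187 l/ha track spray, 15–1000 g ai/ha. 0–100 injury score, day 14.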

[5] = test system: velvetleaf (Abutilon theophrasti, ABUTH); assay: as above; details: rated 14 days after application, 0 = no damage, 100 = complete death
Outline: as §2

[6] = test system: common ragweed (Ambrosia artemisizfolia L., AMBEL); assay: as above; details: rated 14 days after application, 0 = no damage, 100 = complete death
Outline: as §2

[7] = test system: johnsongrass (Sorghum halepense, SORHA); assay: as above; details: rated 14 days after application, 0 = no damage, 100 = complete death
Outline: as §2

[8] = test system: green foxtail (Setaria viridis, SETVI); assay: as above; details: rated 14 days after application, 0 = no damage, 100 = complete death
Outline: as §2

[9] = test system: sicklepod (Cassia obtusifolia, CASOB); assay: as above; details: rated 14 days after application, 0 = no damage, 100 = complete death
Outline: as §2

[10] = test system: ivyleaf morningglory (Ipomoea hederacea, IPOHE); assay: as above; details: rated 14 days after application, 0 = no damage, 100 = complete death
Outline: as §2

[11] = test system: large crabgrass (Digitaria sanguinalis, DIGSA); assay: as above; details: rated 14 days after application, 0 = no damage, 100 = complete death
Outline: as §2

[12] = test system: barnyardgrass (Echinochloa crus-galli, ECHCG); assay: as above; details: rated 14 days after application, 0 = no damage, 100 = complete death
Outline: as §2

[13] = test system: field corn (Zea mays L., var. Dekalb 535, CORN); assay: Post-emerge test, crop safety; details: post-emerge, 14 days after application, rating scale 0-100
Outline: as §2

[14] = test system: upland rice (Oryza sp., var. Tebonnet, RICE); assay: Post-emerge test, crop safety; details: post-emerge, 14 days after application, rating scale 0-100
Outline: as §2

[15] = test system: lambsquarters (Chenopodium album, CHEAL); assay: Post-emerge test, greenhouse herbicide activity screening; details: post-emerge, 14 days after application, rating scale 0-100
Outline: (§3)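 Compounds in acetone were track-sprayed at 15-1000 g ai/ha (187 l/ha) on sandy loam pots: pre-emerge one day after seeding, post-emerge at 2-3 leaf stage with 0.25% v/v non-ionic surfactant. Phytotoxicity was rated 14 days later on a 0 (no damage) to 100 (complete death) scale.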

[16] = test system: velvetleaf (Abutilon theophrasti, ABUTH); assay: as above; details: post-emerge, 14 days after application, rating scale 0-100
Outline: as §3

[17] = test system: common ragweed (Ambrosia artemisizfolia L., AMBEL); assay: as above; details: post-emerge, 14 days after application, rating scale 0-100
Outline: as §3

[18] = test system: johnsongrass (Sorghum halepense, SORHA); assay: as above; details: post-emerge, 14 days after application, rating scale 0-100
Outline: as §3

[19] = test system: green foxtail (Setaria viridis, SETVI); assay: as above; details: post-emerge, 14 days after application, rating scale 0-100
Outline: as §3

[20] = test system: sicklepod (Cassia obtusifolia, CASOB); assay: as above; details: post-emerge, 14 days after application, rating scale 0-100
Outline: as §3

[21] = test system: redroot pigweed (Amaranthus retroflexus, AMARE); assay: as above; details: post-emerge, 14 days after application, rating scale 0-100
Outline: as §3

[22] = test system: ivyleaf morningglory (Ipomoea hederacea, IPOHE); assay: as above; details: post-emerge, 14 days after application, rating scale 0-100
Outline: as §3

[23] = test system: large crabgrass (Digitaria sanguinalis, DIGSA); assay: as above; details: post-emerge, 14 days after application, rating scale 0-100
Outline: as §3

[24] = test system: barnyardgrass (Echinochloa crus-galli, ECHCG); assay: as above; details: post-emerge, 14 days after application, rating scale 0-100
Outline: as §3

COc1c(Cl)cc(F)c(-n2c(=O)cc(C(F)(F)F)n(C)c2=O)c1NC(=O)c1ccc(F)cc1 [2-40]
Pre-emerge Herbicidal Activity, phytotoxicity rating (0-100), AMARE ([1]; 63 g ai/ha): 100
Pre-emerge Herbicidal Activity, phytotoxicity rating (0-100), AMARE ([1]; 250 g ai/ha): 100
Pre-emerge phytotoxicity rating (0-100), crop damage, CORN ([2]; 63 g ai/ha): 50
Pre-emerge phytotoxicity rating (0-100), crop damage, CORN ([2]; 250 g ai/ha): 95
Pre-emerge phytotoxicity rating (0-100), crop damage, RICE ([3]; 63 g ai/ha): 95
Pre-emerge phytotoxicity rating (0-100), crop damage, RICE ([3]; 250 g ai/ha): 100
Pre-emerge Herbicidal Activity, phytotoxicity rating (0-100), CHEAL ([4]; 63 g ai/ha): 100
Pre-emerge Herbicidal Activity, phytotoxicity rating (0-100), CHEAL ([4]; 250 g ai/ha): 100
Pre-emerge Herbicidal Activity, phytotoxicity rating (0-100), ABUTH ([5]; 63 g ai/ha): 100
Pre-emerge Herbicidal Activity, phytotoxicity rating (0-100), ABUTH ([5]; 250 g ai/ha): 100
Pre-emerge Herbicidal Activity, phytotoxicity rating (0-100), AMBEL ([6]; 63 g ai/ha): 100
Pre-emerge Herbicidal Activity, phytotoxicity rating (0-100), AMBEL ([6]; 250 g ai/ha): 100
Pre-emerge Herbicidal Activity, phytotoxicity rating (0-100), SORHA ([7]; 63 g ai/ha): 60
Pre-emerge Herbicidal Activity, phytotoxicity rating (0-100), SORHA ([7]; 250 g ai/ha): 100
Pre-emerge Herbicidal Activity, phytotoxicity rating (0-100), SETVI ([8]; 63 g ai/ha): 100
Pre-emerge Herbicidal Activity, phytotoxicity rating (0-100), SETVI ([8]; 250 g ai/ha): 100
Pre-emerge Herbicidal Activity, phytotoxicity rating (0-100), CASOB ([9]; 63 g ai/ha): 80
Pre-emerge Herbicidal Activity, phytotoxicity rating (0-100), CASOB ([9]; 250 g ai/ha): 100
Pre-emerge Herbicidal Activity, phytotoxicity rating (0-100), IPOHE ([10]; 63 g ai/ha): 90
Pre-emerge Herbicidal Activity, phytotoxicity rating (0-100), IPOHE ([10]; 250 g ai/ha): 100
Pre-emerge Herbicidal Activity, phytotoxicity rating (0-100), DIGSA ([11]; 63 g ai/ha): 90
Pre-emerge Herbicidal Activity, phytotoxicity rating (0-100), DIGSA ([11]; 250 g ai/ha): 100
Pre-emerge Herbicidal Activity, phytotoxicity rating (0-100), ECHCG ([12]; 63 g ai/ha): 85
Pre-emerge Herbicidal Activity, phytotoxicity rating (0-100), ECHCG ([12]; 250 g ai/ha): 100
phytotoxicity rating CORN ([13]; 63 g ai/ha): 40
phytotoxicity rating CORN ([13]; 250 g ai/ha): 90
phytotoxicity rating RICE ([14]; 63 g ai/ha): 50
phytotoxicity rating RICE ([14]; 250 g ai/ha): 95
phytotoxicity rating CHEAL ([15]; 63 g ai/ha): 80
phytotoxicity rating CHEAL ([15]; 250 g ai/ha): 95
phytotoxicity rating ABUTH ([16]; 63 g ai/ha): 100
phytotoxicity rating ABUTH ([16]; 250 g ai/ha): 100
phytotoxicity rating AMBEL ([17]; 63 g ai/ha): 80
phytotoxicity rating AMBEL ([17]; 250 g ai/ha): 100
phytotoxicity rating SORHA ([18]; 63 g ai/ha): 30
phytotoxicity rating SORHA ([18]; 250 g ai/ha): 100
phytotoxicity rating SETVI ([19]; 63 g ai/ha): 10
phytotoxicity rating SETVI ([19]; 250 g ai/ha): 90
phytotoxicity rating CASOB ([20]; 63 g ai/ha): 50
phytotoxicity rating CASOB ([20]; 250 g ai/ha): 90
phytotoxicity rating AMARE ([21]; 63 g ai/ha): 90
phytotoxicity rating AMARE ([21]; 250 g ai/ha): 100
phytotoxicity rating IPOHE ([22]; 63 g ai/ha): 100
phytotoxicity rating IPOHE ([22]; 250 g ai/ha): 100
phytotoxicity rating DIGSA ([23]; 63 g ai/ha): 10
phytotoxicity rating DIGSA ([23]; 250 g ai/ha): 90
phytotoxicity rating ECHCG ([24]; 63 g ai/ha): 0
phytotoxicity rating ECHCG ([24]; 250 g ai/ha): 100

COc1c(Cl)cc(F)c(-n2c(=O)cc(C(F)(F)F)n(C)c2=O)c1NC(=O)c1cccc(F)c1F [2-41]
Pre-emerge Herbicidal Activity, phytotoxicity rating (0-100), AMARE ([1]; 63 g ai/ha): 100
Pre-emerge Herbicidal Activity, phytotoxicity rating (0-100), AMARE ([1]; 250 g ai/ha): 100
Pre-emerge phytotoxicity rating (0-100), crop damage, CORN ([2]; 63 g ai/ha): 35
Pre-emerge phytotoxicity rating (0-100), crop damage, CORN ([2]; 250 g ai/ha): 95
Pre-emerge phytotoxicity rating (0-100), crop damage, RICE ([3]; 63 g ai/ha): 50
Pre-emerge phytotoxicity rating (0-100), crop damage, RICE ([3]; 250 g ai/ha): 90
Pre-emerge Herbicidal Activity, phytotoxicity rating (0-100), CHEAL ([4]; 63 g ai/ha): 100
Pre-emerge Herbicidal Activity, phytotoxicity rating (0-100), CHEAL ([4]; 250 g ai/ha): 100
Pre-emerge Herbicidal Activity, phytotoxicity rating (0-100), ABUTH ([5]; 63 g ai/ha): 100
Pre-emerge Herbicidal Activity, phytotoxicity rating (0-100), ABUTH ([5]; 250 g ai/ha): 100
Pre-emerge Herbicidal Activity, phytotoxicity rating (0-100), AMBEL ([6]; 63 g ai/ha): 100
Pre-emerge Herbicidal Activity, phytotoxicity rating (0-100), AMBEL ([6]; 250 g ai/ha): 100
Pre-emerge Herbicidal Activity, phytotoxicity rating (0-100), SORHA ([7]; 63 g ai/ha): 30
Pre-emerge Herbicidal Activity, phytotoxicity rating (0-100), SORHA ([7]; 250 g ai/ha): 100
Pre-emerge Herbicidal Activity, phytotoxicity rating (0-100), SETVI ([8]; 63 g ai/ha): 95
Pre-emerge Herbicidal Activity, phytotoxicity rating (0-100), SETVI ([8]; 250 g ai/ha): 100
Pre-emerge Herbicidal Activity, phytotoxicity rating (0-100), CASOB ([9]; 63 g ai/ha): 80
Pre-emerge Herbicidal Activity, phytotoxicity rating (0-100), CASOB ([9]; 250 g ai/ha): 100
Pre-emerge Herbicidal Activity, phytotoxicity rating (0-100), IPOHE ([10]; 63 g ai/ha): 90
Pre-emerge Herbicidal Activity, phytotoxicity rating (0-100), IPOHE ([10]; 250 g ai/ha): 100
Pre-emerge Herbicidal Activity, phytotoxicity rating (0-100), DIGSA ([11]; 63 g ai/ha): 70
Pre-emerge Herbicidal Activity, phytotoxicity rating (0-100), DIGSA ([11]; 250 g ai/ha): 100
Pre-emerge Herbicidal Activity, phytotoxicity rating (0-100), ECHCG ([12]; 63 g ai/ha): 50
Pre-emerge Herbicidal Activity, phytotoxicity rating (0-100), ECHCG ([12]; 250 g ai/ha): 100
phytotoxicity rating CORN ([13]; 63 g ai/ha): 15
phytotoxicity rating CORN ([13]; 250 g ai/ha): 80
phytotoxicity rating RICE ([14]; 63 g ai/ha): 10
phytotoxicity rating RICE ([14]; 250 g ai/ha): 70
phytotoxicity rating CHEAL ([15]; 63 g ai/ha): 95
phytotoxicity rating CHEAL ([15]; 250 g ai/ha): 100
phytotoxicity rating ABUTH ([16]; 63 g ai/ha): 100
phytotoxicity rating ABUTH ([16]; 250 g ai/ha): 100
phytotoxicity rating AMBEL ([17]; 63 g ai/ha): 50
phytotoxicity rating AMBEL ([17]; 250 g ai/ha): 95
phytotoxicity rating SORHA ([18]; 63 g ai/ha): 0
phytotoxicity rating SORHA ([18]; 250 g ai/ha): 70
phytotoxicity rating SETVI ([19]; 63 g ai/ha): 20
phytotoxicity rating SETVI ([19]; 250 g ai/ha): 30
phytotoxicity rating CASOB ([20]; 63 g ai/ha): 60
phytotoxicity rating CASOB ([20]; 250 g ai/ha): 95
phytotoxicity rating AMARE ([21]; 63 g ai/ha): 95
phytotoxicity rating AMARE ([21]; 250 g ai/ha): 100
phytotoxicity rating IPOHE ([22]; 63 g ai/ha): 100
phytotoxicity rating IPOHE ([22]; 250 g ai/ha): 100
phytotoxicity rating DIGSA ([23]; 63 g ai/ha): 0
phytotoxicity rating DIGSA ([23]; 250 g ai/ha): 20
phytotoxicity rating ECHCG ([24]; 63 g ai/ha): 0
phytotoxicity rating ECHCG ([24]; 250 g ai/ha): 30
